Molecular target: T1, SHP2 (residues 224-528) (Homo sapiens, UniProt Q06124)
T1 construct: 4× solution of SHP2 (residues 224-528)
T1 sequence (Q06124 224-528): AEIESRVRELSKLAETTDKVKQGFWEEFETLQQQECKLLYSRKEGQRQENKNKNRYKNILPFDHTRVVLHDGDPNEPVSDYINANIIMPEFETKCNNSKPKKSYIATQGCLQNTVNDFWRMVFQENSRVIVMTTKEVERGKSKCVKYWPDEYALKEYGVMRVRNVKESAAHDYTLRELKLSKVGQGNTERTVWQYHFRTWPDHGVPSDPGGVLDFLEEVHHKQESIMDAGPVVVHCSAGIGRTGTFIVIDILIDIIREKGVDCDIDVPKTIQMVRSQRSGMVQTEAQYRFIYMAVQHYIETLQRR
Experiment: Kinetic characterization of SHP2 inactivation (pNPP cleavage progress curves, kobs, kinact/KI)
Assay type: biochemical
Conditions: pH 7, role: inhibitor; substrate pNPP 3 mM, 100 nM SHP2, pH 7.0, 25° C; read-out: kinact/KI (converted)
From the text: Covalent inhibitors work by forming a covalent bond with a reactive functional group in the target enzyme. Consequently, the kinetics for enzyme inactivation by a covalent inhibitor is not an equilibrium process as with reversible inhibition. The potency of a reversible inhibitor can be measured by its IC50 value. Unlike reversible inhibitors, where inhibition is only concentration-dependent, covalent inhibitors show both time- and concentration-dependent target inhibition (a covalent bond formation is a time-dependent event). If sufficient time is available, covalent inhibitors can completely neutralize the target, rather than go to equilibrium. As a result, the potency and selectivity of a covalent inhibitor cannot be determined by IC50 values; instead, the rate of inactivation of the target (kinact) and the inhibition constant (KI) were determined. The bimolecular rate constant (kinact/KI), was chosen to rank the potency of covalent inhibitors (Ruddraraju et al., 2017, Molecular Biosystems 13(7), 1257-1279).
PTPs catalyze the dephosphorylation of tyrosine-phosphorylated protein substrates through a conserved mechanism that relies on a catalytic cysteine residue (Zhang, Z.-Y et al., 2003, Prog. Nucleic Acid Research Molecular Biology, 73, 171-220). This provides a mechanistic rationale for the assessment of electrophilic Michael acceptors, such as those synthesized in the present disclosure as potential covalent inhibitors of the SHP2. The enzymatic cleavage of para-nitrophenyl phosphate by SHP2 was measured over time in the presence of 100 μM inhibitor or DMSO, to determine the observed first-order rate constant (kobs). Based on kobs values, compounds were further evaluated in a dose-dependent manner to determine the second-order rate constant (kinact/KI) indicating the overall efficacy of the compounds, which was used to assess the structure-activity relationship (SAR) for the analogs of interest and design additional analogs (see Table 1). […] It has been known that modifications to the electronegativity of substituents proximal to electrophilic centers alter the reactivity of the electrophile.
The efficacy of covalent inhibitors can be broken down into the initial reversible binding of the compounds (KI), and the rate of covalent bond formation and enzyme inactivation (kinact). These two constants can be used individually, or as a ratio to determine the overall efficacy of the inhibitor's efficacy. To investigate the contribution to reversible binding compound (34) was evaluated, which lacks the carbonyl of the Michael acceptor to prevent the formation of a covalent adduct.
Inhibitors were evaluated for their ability to inhibit the reaction catalyzed by SHP2 using para-nitrophenyl phosphate (pNPP) as a substrate at pH 7 and 25° C. A 2× solution of inhibitor was diluted into DMG buffer (50 mM 3,3-dimethylglutarate pH 7.0, 1 mM EDTA, ionic strength adjusted to 150 mM using NaCl) was added to a clear flat-bottom 96-well plate (Corning Costar Assay Plate #9017), and serially diluted 1.5-fold, resulting in 100 μL volumes of varying inhibitor concentrations. To this was added a 4× solution of pNPP (12 mM) in DMG buffer. The reaction was initialized by the addition of a 4× solution of SHP2 (residues 224-528), resulting in a final solution of: inhibitor (100-0 μM), pNPP (3 mM), and SHP2 (100 nM). The plate was then monitored for a change in absorbance ab […] using a CLARIOstar^Plus plate reader (BMG Labetch) over the course of an hour. The resulting progress curves for each inhibitor were imported into Graphpad Prism 9 (GraphPad Software, San Diego, CA (USA)), and a baseline correction analysis was completed for fitting purposes. Each curve was fit to the equation Y=V0×(1−e^−kobs*t)/kobs.^[17.22] The kobs values were then plotted against inhibitor concentrations. If the resulting graph was linear, the kinact/KI value was determined by the slope of that line and the 95% confidence interval (95% CI). […]

kinact/KI: 396 M⁻¹ s⁻¹
SMILES: C=C1C(=O)[C@@]2(C(=O)N3CCN(c4ccc(I)cc4)CC3)CC(=O)C[C@@H]1C2 [Compound 37]
